Measurements: patent US20240360178A1, “MACROCYCLIC IMMUNOMODULATORS” (Bristol-Myers Squibb Company, priority 2021, published 2024)
Positions of bridges follow the written chain, without caps; N, C: chain ends. Non-standard residues stand in square brackets, D forms with d. Residues, ends and D or L forms follow the SMILES beside them. ξ: configuration not given here. Phe(3-CF3) = N[C@@H](Cc1cccc(C(F)(F)F)c1)C(=O)O; Phe(4-CONH2) = NC(=O)c1ccc(C[C@H](N)C(=O)O)cc1; Phe(4-COOH) = N[C@@H](Cc1ccc(C(=O)O)cc1)C(=O)O; Bip = N[C@@H](Cc1ccc(-c2ccccc2)cc1)C(=O)O; Phe(3-OMe) = COc1cccc(C[C@H](N)C(=O)O)c1; NMeY = CN[C@@H](Cc1ccc(O)cc1)C(=O)O; NMeF = CN[C@@H](Cc1ccccc1)C(=O)O; 4Pal = N[C@@H](Cc1ccncc1)C(=O)O; Cha = N[C@@H](CC1CCCCC1)C(=O)O; NMeA = CN[C@@H](C)C(=O)O; Orn = NCCC[C@H](N)C(=O)O; Dab = NCC[C@H](N)C(=O)O; ξV = CC(C)C(N)C(=O)O; Sar = CNCC(=O)O

Target: T1, human PD-1 (Jurkat-PD-1 cells) / PE-labeled human PD-L1-Ig (Homo sapiens, UniProt Q15116)
T1 construct: expressed in transfected cells; host or cells: Jurkat cell line over-expressing human PD-1
T1 sequence (Q15116 25-288): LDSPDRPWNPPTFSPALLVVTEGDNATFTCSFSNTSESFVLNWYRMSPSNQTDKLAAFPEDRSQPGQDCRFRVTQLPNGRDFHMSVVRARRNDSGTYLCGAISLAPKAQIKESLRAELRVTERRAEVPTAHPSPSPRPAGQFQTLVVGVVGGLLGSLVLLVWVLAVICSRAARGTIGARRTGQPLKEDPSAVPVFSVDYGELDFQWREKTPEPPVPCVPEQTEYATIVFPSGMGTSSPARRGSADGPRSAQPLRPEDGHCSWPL
Assay: Jurkat-PD-1 Cell Binding High-Content Screening Assay (CBA); Jurkat hPD1-PDL1 assay
Conditions: Jurkat cell line over-expressing human PD-1; PE-labeled PD-L1-Ig 20 nM final; compound incubated 2 hours at 37° C.; read-out: Jurkat HPD1-PDL1 IC50
Method in brief: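 Binding of phycoerythrin-conjugated PD-L1-Ig (20 nM final) to PD-1-overexpressing Jurkat cells was read by high-content imaging. Cells in DMEM/10% FCS were exposed to compound for 2 hours at 37° C before labeled ligand was added.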

CC(C)C[C@@H]1NC(=O)[C@H](Cc2c[nH]c3ccccc23)NC(=O)[C@H](CC(=O)O)NC(=O)[C@H](Cc2ccc(O)cc2)NC(=O)[C@H](Cc2ccccc2)NC(=O)CSC[C@@H](C(=O)N[C@@H](C)C(N)=O)NC(=O)[C@H](CO)NC(=O)[C@H](C(C)C)NC(=O)[C@H](CC(C)C)NC(=O)[C@H](CC(N)=O)NC(=O)[C@H]2CCCN2C(=O)[C@H](C)N(C)C(=O)[C@H](C(C)C)NC(=O)[C@H](Cc2ccc(-c3ccccc3)cc2)NC1=O [Example 1034] ({CH2CO}-FYDWL[Bip]V[NMeA][dP]NLVSCA-NH2; thioether N-14)
IC50: 0.06 µM

CC(C)C[C@@H]1NC(=O)[C@H](CCCNC(=N)N)NC(=O)[C@H](Cc2ccccc2)N(C)C(=O)[C@H](C)N(C)C(=O)[C@H](CCCNC(=N)N)NC(=O)[C@H](Cc2ccc(-c3ccccc3)cc2)NC(=O)[C@H](C(C)C)NC(=O)[C@H](Cc2c[nH]c3ccccc23)NC(=O)[C@H](CC(=O)O)NC(=O)[C@H](Cc2ccc(O)cc2)NC(=O)[C@H](Cc2c[nH]c3ccccc23)NC(=O)CSC[C@@H](C(=O)NCC(N)=O)NC(=O)[C@H](CO)NC(=O)[C@H](C(C)C)NC1=O [Example 1157] ({CH2CO}-WYDWV[Bip]R[NMeA][NMeF]RLVSCG-NH2; thioether N-14)
IC50: 0.83 µM

CC(C)C[C@@H]1NC(=O)[C@H](CCCCN)NC(=O)[C@H](Cc2ccccc2)N(C)C(=O)[C@H](C)N(C)C(=O)[C@H](CCCNC(=N)N)NC(=O)[C@H](Cc2ccc(-c3ccccc3)cc2)NC(=O)[C@H](C(C)C)NC(=O)[C@H](Cc2c[nH]c3ccccc23)NC(=O)[C@H](CC(=O)O)NC(=O)[C@H](Cc2ccc(O)cc2)NC(=O)[C@H](CC(N)=O)NC(=O)CSC[C@@H](C(=O)N[C@@H](C)C(N)=O)NC(=O)[C@H]([C@@H](C)O)NC(=O)[C@H](C(C)C)NC1=O [Example 1385] ({CH2CO}-NYDWV[Bip]R[NMeA][NMeF]KLVTCA-NH2; thioether N-14)
IC50: 0.28 µM

CC(C)C1NC(=O)[C@H](Cc2c[nH]c3ccccc23)NC(=O)[C@H](CC(=O)O)NC(=O)[C@H](Cc2ccc(C(=O)O)cc2)NC(=O)[C@H](Cc2ccncc2)NC(=O)CSC[C@@H](C(=O)N[C@@H](C)C(N)=O)NC(=O)[C@H]([C@@H](C)O)NC(=O)[C@H](C(C)C)NC(=O)[C@H](CC2CCCCC2)NC(=O)[C@H](CCN)NC(=O)[C@H](Cc2ccc(O)cc2)N(C)C(=O)[C@H](CCCN)NC(=O)[C@H](CCC(=O)O)NC(=O)[C@H](Cc2ccc(-c3ccccc3)cc2)NC1=O (some centres unmarked) [Example 1450] ({CH2CO}-[4Pal][Phe(4-COOH)]DW[ξV][Bip]E[Orn][NMeY][Dab][Cha]VTCA-NH2; thioether N-14)
IC50: 0.21 µM

COc1cccc(C[C@@H]2NC(=O)[C@H](CC(=O)O)NC(=O)[C@H](Cc3ccc(O)cc3)NC(=O)[C@H](Cc3ccccc3)NC(=O)CSC[C@@H](C(=O)N[C@@H](C)C(N)=O)NC(=O)[C@H](CO)NC(=O)[C@H](C(C)C)NC(=O)[C@H](CC(C)C)NC(=O)[C@H](CC(N)=O)NC(=O)CN(C)C(=O)[C@H](C)N(C)C(=O)[C@H](C(C)C)NC(=O)[C@H](Cc3ccc(-c4ccccc4)cc3)NC(=O)[C@H](CC(C)C)NC2=O)c1 [Example 1106] ({CH2CO}-FYD[Phe(3-OMe)]L[Bip]V[NMeA][Sar]NLVSCA-NH2; thioether N-14)
IC50: 0.33 µM

CC(C)C[C@@H]1NC(=O)[C@H](CCN)NC(=O)[C@H](Cc2ccccc2)N(C)C(=O)[C@H](C)N(C)C(=O)[C@H](CCCNC(=N)N)NC(=O)[C@H](Cc2ccc(-c3ccccc3)cc2)NC(=O)[C@H](C(C)C)NC(=O)[C@H](Cc2c[nH]c3ccccc23)NC(=O)[C@H](CC(=O)O)NC(=O)[C@H](Cc2ccc(O)cc2)NC(=O)[C@H](Cc2ccccc2)NC(=O)CSC[C@@H](C(=O)N[C@@H](C)C(N)=O)NC(=O)[C@H]([C@@H](C)O)NC(=O)[C@H](C(C)C)NC1=O [Example 1322] ({CH2CO}-FYDWV[Bip]R[NMeA][NMeF][Dab]LVTCA-NH2; thioether N-14)
IC50: 0.12 µM

CC(C)C[C@@H]1NC(=O)[C@H](CCCN)NC(=O)[C@H](Cc2ccccc2)N(C)C(=O)[C@H](C)N(C)C(=O)[C@H](CCCNC(=N)N)NC(=O)[C@H](Cc2ccc(-c3ccccc3)cc2)NC(=O)[C@H](C(C)C)NC(=O)[C@H](Cc2c[nH]c3ccccc23)NC(=O)[C@H](CC(=O)O)NC(=O)[C@H](Cc2ccc(O)cc2)NC(=O)[C@H](Cc2ccccc2)NC(=O)CSC[C@@H](C(=O)N[C@@H](CCC(=O)O)C(N)=O)NC(=O)[C@H]([C@@H](C)O)NC(=O)[C@H](C(C)C)NC1=O [Example 1361] ({CH2CO}-FYDWV[Bip]R[NMeA][NMeF][Orn]LVTCE-NH2; thioether N-14)
IC50: 0.38 µM

CC(C)C[C@@H]1NC(=O)CSC[C@@H](C(=O)NCC(N)=O)NC(=O)[C@H](CO)NC(=O)[C@H](C(C)C)NC(=O)[C@H](CC(C)C)NC(=O)[C@H](CCCNC(=N)N)NC(=O)[C@H](Cc2ccccc2)N(C)C(=O)[C@H](C)N(C)C(=O)[C@H](CCCNC(=N)N)NC(=O)[C@H](Cc2ccc(-c3ccccc3)cc2)NC(=O)[C@H](C(C)C)NC(=O)[C@H](Cc2c[nH]c3ccccc23)NC(=O)[C@H](CC(=O)O)NC(=O)[C@H](Cc2ccc(O)cc2)NC1=O [Example 1077] ({CH2CO}-LYDWV[Bip]R[NMeA][NMeF]RLVSCG-NH2; thioether N-14)
IC50: 0.21 µM

CC(C)C[C@@H]1NC(=O)[C@H](Cc2c[nH]c3ccccc23)NC(=O)[C@H](CC(=O)O)NC(=O)[C@H](Cc2ccc(O)cc2)NC(=O)[C@H](CC(N)=O)NC(=O)CSC[C@@H](C(=O)N[C@@H](C)C(N)=O)NC(=O)[C@H](CO)NC(=O)[C@H](C(C)C)NC(=O)[C@H](CC(C)C)NC(=O)[C@H](CC(N)=O)NC(=O)[C@H]2CCCN2C(=O)[C@H](CCCN)NC(=O)[C@H](C(C)C)NC(=O)[C@H](Cc2ccc(-c3ccccc3)cc2)NC1=O [Example 1425] ({CH2CO}-NYDWL[Bip]V[Orn][dP]NLVSCA-NH2; thioether N-14)
IC50: 0.19 µM

CC(C)C[C@@H]1NC(=O)[C@H](CCCNC(=N)N)NC(=O)[C@H](Cc2ccccc2)N(C)C(=O)[C@H](C)N(C)C(=O)[C@H](CCCNC(=N)N)NC(=O)[C@H](Cc2ccc(-c3ccccc3)cc2)NC(=O)[C@H](C(C)C)NC(=O)[C@H](Cc2c[nH]c3ccccc23)NC(=O)[C@H](CC(=O)O)NC(=O)[C@H](Cc2ccc(O)cc2)NC(=O)[C@H](Cc2ccc(C(N)=O)cc2)NC(=O)CSC[C@@H](C(=O)NCC(N)=O)NC(=O)[C@H](CO)NC(=O)[C@H](C(C)C)NC1=O [Example 1257] ({CH2CO}-[Phe(4-CONH2)]YDWV[Bip]R[NMeA][NMeF]RLVSCG-NH2; thioether N-14)
IC50: 0.08 µM

CC(C)C[C@@H]1NC(=O)[C@H](Cc2cccc(C(F)(F)F)c2)NC(=O)[C@H](CC(=O)O)NC(=O)[C@H](Cc2ccc(O)cc2)NC(=O)[C@H](Cc2ccccc2)NC(=O)CSC[C@@H](C(=O)N[C@@H](C)C(N)=O)NC(=O)[C@H](CO)NC(=O)[C@H](C(C)C)NC(=O)[C@H](CC(C)C)NC(=O)[C@H](CC(N)=O)NC(=O)CN(C)C(=O)[C@H](C)N(C)C(=O)[C@H](C(C)C)NC(=O)[C@H](Cc2ccc(-c3ccccc3)cc2)NC1=O [Example 1081] ({CH2CO}-FYD[Phe(3-CF3)]L[Bip]V[NMeA][Sar]NLVSCA-NH2; thioether N-14)
IC50: 0.23 µM
